Format in all cases: biochemical
One experiment concerns the target T1, Human PI3K beta (Homo sapiens, UniProt P42338).
T1 construct: His (N); host or cells: SF9 insect cells (baculovirus)
The experiment in a line: Human PI3K beta enzyme assay (HTRF). Put shortly:
(§1)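 Compounds were mixed with 25 uM ATP, then with 3.5 uM di-C8 PI(4,5)P2 and His-tagged PI3K isoform (β 5.25 nM, δ 0.75 nM, γ 5 nM) at pH 7.00. After 30 min at room temperature, EDTA stopped the reaction and PIP3 was measured by HTRF over 1 h.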
(TR-FRET usually uses a lanthanide donor and a delayed reading to cut background.)

A further experiment addresses T2, Human PI3K gamma (Homo sapiens, UniProt P48736).
T2 construct: His (N); host or cells: SF9 insect cells (baculovirus)
The experiment in a line: Human PI3K gamma enzyme assay (HTRF). Put shortly:
as §1

The target in another experiment is T3, Human PI3K alpha (Homo sapiens, UniProt P42336).
T3 construct: His (N); host or cells: SF9 insect cells (baculovirus)
The experiment in a line: Human PI3K alpha enzyme assay (HTRF).

In a further experiment the target is T4, Human PI3K delta (Homo sapiens, UniProt O00329).
T4 construct: His (N); host or cells: SF9 insect cells (baculovirus)
The experiment in a line: Human PI3K delta enzyme assay (HTRF). The method, boiled down: as §1

Setting [1] is: concentration not given, b1387 states 1.1 μM for PI3K α and β, read-out: p110 beta Percent Inhibition.
[2] abbreviates: concentration not given, b1389 states 1.0 μM for PI3K δ and γ, read-out: p110 gamma Percent Inhibition.
The mark [3] stands for this setting: concentration not given, b1387 states 1.1 μM for PI3K α and β, read-out: p110 alpha Percent Inhibition.
Where [4] appears, read: concentration not given, b1389 states 1.0 μM for PI3K δ and γ, read-out: p110 delta Percent Inhibition.
Where [5] appears, read: concentration not given, b1387 states 1.1 μM for PI3K α and β.
The mark [6] stands for this setting: concentration not given, b1389 states 1.0 μM for PI3K δ and γ.

Read-outs that look alike come from different tables or passages of the source.

T1 sequence (P42338 whole entry): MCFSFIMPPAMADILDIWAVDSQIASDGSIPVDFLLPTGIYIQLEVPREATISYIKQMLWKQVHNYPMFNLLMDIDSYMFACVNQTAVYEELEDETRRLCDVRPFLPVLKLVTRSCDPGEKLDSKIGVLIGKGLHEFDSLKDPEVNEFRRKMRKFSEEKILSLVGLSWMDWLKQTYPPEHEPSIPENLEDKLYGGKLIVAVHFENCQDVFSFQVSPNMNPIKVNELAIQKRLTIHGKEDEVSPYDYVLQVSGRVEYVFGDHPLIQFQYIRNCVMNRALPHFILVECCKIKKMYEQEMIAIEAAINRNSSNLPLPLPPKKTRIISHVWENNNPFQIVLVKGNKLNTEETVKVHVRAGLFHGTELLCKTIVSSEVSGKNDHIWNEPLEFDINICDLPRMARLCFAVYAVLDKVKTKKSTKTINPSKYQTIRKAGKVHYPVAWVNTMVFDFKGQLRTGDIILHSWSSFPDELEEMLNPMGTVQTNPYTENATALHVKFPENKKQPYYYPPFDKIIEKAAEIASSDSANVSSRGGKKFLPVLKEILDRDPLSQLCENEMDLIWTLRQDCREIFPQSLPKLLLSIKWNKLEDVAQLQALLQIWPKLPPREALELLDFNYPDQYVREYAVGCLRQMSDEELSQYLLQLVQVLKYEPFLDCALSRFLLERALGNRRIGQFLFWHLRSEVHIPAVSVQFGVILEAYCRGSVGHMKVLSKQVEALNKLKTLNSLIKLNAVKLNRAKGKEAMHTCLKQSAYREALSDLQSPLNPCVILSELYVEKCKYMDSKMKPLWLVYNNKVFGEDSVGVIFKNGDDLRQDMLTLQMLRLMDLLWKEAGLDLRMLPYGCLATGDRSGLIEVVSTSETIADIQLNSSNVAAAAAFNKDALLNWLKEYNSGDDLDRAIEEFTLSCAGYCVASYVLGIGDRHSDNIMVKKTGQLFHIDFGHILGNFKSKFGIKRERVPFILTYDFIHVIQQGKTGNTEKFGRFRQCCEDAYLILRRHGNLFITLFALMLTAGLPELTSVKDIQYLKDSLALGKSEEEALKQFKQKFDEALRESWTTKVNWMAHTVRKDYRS
T1 sequence (P27986 whole entry partner): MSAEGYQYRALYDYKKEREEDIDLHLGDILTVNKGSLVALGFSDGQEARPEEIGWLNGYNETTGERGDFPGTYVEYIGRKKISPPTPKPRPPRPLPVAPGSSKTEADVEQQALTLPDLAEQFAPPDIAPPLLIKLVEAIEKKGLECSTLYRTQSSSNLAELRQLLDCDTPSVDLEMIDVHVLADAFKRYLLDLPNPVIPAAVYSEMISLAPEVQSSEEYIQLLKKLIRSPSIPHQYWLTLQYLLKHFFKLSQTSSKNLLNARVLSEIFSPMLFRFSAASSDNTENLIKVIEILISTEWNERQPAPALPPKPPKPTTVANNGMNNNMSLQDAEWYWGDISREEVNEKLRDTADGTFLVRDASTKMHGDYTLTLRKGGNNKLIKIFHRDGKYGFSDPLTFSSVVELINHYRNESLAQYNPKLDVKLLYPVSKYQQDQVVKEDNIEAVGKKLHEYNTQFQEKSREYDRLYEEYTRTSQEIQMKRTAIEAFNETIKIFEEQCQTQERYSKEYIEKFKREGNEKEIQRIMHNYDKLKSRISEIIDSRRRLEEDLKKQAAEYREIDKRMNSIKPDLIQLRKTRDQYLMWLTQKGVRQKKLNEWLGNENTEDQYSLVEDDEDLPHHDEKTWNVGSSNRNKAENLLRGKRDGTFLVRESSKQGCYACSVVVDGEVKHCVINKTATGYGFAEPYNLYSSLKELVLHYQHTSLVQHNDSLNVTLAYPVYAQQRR
T2 sequence (P48736 whole entry): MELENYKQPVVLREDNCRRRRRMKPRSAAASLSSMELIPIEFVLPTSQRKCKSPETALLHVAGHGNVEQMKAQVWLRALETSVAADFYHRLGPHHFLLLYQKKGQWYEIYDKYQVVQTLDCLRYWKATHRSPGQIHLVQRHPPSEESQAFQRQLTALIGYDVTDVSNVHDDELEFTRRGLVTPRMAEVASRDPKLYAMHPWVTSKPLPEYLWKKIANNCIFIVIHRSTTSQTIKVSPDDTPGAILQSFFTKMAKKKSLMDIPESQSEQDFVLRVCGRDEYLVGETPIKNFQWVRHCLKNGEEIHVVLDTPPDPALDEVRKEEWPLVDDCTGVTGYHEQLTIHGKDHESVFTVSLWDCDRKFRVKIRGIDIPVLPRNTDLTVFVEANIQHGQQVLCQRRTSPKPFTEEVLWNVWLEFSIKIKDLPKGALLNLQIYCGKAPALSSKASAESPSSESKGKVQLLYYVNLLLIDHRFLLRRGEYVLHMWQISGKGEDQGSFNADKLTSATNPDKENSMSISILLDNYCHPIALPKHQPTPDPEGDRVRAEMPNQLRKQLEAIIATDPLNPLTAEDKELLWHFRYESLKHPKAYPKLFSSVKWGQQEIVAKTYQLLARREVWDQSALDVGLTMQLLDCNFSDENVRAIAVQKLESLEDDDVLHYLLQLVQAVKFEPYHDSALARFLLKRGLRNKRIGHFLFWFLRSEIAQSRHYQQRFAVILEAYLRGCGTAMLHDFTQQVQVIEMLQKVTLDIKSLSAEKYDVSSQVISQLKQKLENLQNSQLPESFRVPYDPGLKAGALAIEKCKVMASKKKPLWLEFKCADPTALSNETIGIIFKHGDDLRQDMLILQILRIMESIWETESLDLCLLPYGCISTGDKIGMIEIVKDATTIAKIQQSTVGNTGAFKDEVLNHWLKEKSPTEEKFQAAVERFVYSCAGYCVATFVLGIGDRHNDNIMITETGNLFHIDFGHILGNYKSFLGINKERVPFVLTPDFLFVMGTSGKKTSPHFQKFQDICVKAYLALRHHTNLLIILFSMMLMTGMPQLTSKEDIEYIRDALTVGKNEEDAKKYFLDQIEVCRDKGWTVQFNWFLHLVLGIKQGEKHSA
T3 sequence (P42336 whole entry): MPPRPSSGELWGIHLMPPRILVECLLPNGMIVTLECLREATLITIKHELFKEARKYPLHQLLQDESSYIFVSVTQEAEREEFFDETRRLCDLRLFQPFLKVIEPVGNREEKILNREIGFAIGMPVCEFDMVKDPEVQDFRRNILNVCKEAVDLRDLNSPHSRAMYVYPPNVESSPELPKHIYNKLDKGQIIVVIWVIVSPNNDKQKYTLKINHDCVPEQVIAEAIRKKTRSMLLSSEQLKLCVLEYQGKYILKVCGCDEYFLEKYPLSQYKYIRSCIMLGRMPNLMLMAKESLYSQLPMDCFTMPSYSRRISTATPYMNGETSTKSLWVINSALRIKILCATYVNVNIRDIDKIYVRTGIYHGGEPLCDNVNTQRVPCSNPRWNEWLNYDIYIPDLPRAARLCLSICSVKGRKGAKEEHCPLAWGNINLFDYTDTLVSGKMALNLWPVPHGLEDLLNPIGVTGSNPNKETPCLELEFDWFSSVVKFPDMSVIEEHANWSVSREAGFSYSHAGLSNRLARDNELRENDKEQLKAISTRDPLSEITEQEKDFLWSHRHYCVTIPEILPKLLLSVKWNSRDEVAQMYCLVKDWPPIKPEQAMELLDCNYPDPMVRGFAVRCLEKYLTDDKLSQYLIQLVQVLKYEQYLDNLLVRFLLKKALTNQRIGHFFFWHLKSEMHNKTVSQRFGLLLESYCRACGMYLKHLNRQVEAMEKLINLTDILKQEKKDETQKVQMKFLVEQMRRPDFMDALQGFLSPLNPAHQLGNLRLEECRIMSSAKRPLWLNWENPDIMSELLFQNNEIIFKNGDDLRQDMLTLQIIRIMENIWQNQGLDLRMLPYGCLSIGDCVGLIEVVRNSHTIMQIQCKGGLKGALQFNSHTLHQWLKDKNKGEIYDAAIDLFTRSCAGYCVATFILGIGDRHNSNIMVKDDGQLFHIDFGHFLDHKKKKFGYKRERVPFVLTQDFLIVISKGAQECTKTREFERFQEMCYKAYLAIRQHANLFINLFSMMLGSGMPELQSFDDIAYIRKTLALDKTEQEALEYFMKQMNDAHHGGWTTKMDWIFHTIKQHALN
T3 sequence (P27986 whole entry partner): as the sequence (P27986 whole entry partner) above
T4 sequence (O00329 whole entry): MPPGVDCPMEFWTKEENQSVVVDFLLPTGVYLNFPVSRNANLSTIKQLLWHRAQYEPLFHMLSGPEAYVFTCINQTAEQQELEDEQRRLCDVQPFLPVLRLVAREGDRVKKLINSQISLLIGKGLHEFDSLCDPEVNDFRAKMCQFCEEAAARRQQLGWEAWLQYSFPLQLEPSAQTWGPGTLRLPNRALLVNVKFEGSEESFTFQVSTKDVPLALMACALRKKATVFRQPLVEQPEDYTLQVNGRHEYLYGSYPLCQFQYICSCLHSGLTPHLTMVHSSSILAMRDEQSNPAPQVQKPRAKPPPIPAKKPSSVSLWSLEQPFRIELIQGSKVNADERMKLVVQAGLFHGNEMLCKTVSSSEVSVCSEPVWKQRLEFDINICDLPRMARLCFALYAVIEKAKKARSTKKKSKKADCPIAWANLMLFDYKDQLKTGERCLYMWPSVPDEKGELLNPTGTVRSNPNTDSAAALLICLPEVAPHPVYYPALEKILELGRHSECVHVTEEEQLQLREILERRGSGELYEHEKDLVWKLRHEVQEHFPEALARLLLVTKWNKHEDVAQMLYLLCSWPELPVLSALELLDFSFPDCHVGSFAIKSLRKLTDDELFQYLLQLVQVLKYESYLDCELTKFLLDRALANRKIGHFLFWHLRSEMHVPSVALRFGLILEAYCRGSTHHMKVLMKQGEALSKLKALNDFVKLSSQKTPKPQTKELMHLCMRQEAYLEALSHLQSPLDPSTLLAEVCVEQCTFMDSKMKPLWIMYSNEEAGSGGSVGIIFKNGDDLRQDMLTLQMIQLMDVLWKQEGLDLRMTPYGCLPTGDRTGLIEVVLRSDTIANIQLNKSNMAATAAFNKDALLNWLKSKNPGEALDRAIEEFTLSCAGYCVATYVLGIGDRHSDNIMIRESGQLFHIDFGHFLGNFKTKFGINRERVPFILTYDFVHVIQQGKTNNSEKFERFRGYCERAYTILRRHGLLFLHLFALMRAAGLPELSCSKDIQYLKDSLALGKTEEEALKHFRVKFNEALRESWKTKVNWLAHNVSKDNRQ
T4 sequence (P27986 whole entry partner): as the sequence (P27986 whole entry partner) above

Regarding `OC(c1ccc(F)c(F)c1)c1cc(-c2ccncc2)sc1-c1nnc[nH]1` (stereo not drawn) [Compound 199], the values for the inhibition at 1.1 µM on Human PI3K beta (setting [1]) and on Human PI3K alpha (setting [3]) were 64% and 21%, respectively. The results for the inhibition at 1 µM on Human PI3K gamma (setting [2]) and on Human PI3K delta (setting [4]) were 16% and 42%, respectively.
On the same counts, the results for `OC(c1ccc(Br)cc1)c1cc(-c2ccncc2)sc1-c1nnc[nH]1` (stereo not drawn) [Compound 231] are 104%, 34%, 47% and 77%.
On to `CC(c1ccc(Cl)c(Cl)c1)c1c(C(=O)O)sc(N2CCOCC2)c1C#N` (stereo not drawn) [Compound 321], for which, on Human PI3K beta (setting [5]), the “p110 beta Percent Inhibition” value was 73%. Besides, the inhibition at 1 µM on Human PI3K gamma (setting [2]) was 59%. The inhibition at 1.1 µM on Human PI3K alpha (setting [3]) amounted to 67%. The “p110 delta Percent Inhibition” value on Human PI3K delta (setting [6]) amounted to 86%.
`CC(=O)Nc1cc(-c2cc(C(OCC3CNC3)c3ccc(Cl)cc3)c(-c3nnc[nH]3)s2)ccn1` (stereo not drawn) [Compound 182]: the inhibition at 1.1 µM on Human PI3K beta (setting [1]) came to 100%; at Human PI3K alpha (setting [3]), 83%. The inhibition at 1 µM at Human PI3K gamma (setting [2]) amounted to 45%; on Human PI3K delta (setting [4]), 107%.
For `OC(c1ccc(-c2ncccn2)cc1)c1cc(-c2ccncc2)sc1-c1nnc[nH]1` (stereo not drawn) [Compound 252] the same measures were 85%, 58%, 12% and 60%.
Regarding `COC(c1ccc2ccccc2c1)c1c(C(=O)O)sc(N2CCOCC2)c1C#N` (stereo not drawn) [Compound 368, 4-cyano-3-[methoxy(2-naphthyl)methyl]-5-(morpholin-4-yl)thiophene-2-carboxylic acid], the inhibition at 1.1 µM at Human PI3K beta (setting [1]) worked out at 112%; on Human PI3K alpha (setting [3]), 89%. For the same compound, on Human PI3K gamma (setting [2]), the inhibition at 1 µM stood at 87%. Moreover, the “p110 delta Percent Inhibition” value at Human PI3K delta (setting [6]) came out at 113%.
As for `O=C(O)c1sc(N2CCOCC2)nc1Cc1ccc2cccc(F)c2c1` [Compound 299], the figures for the inhibition at 1.1 µM at Human PI3K beta (setting [1]) and on Human PI3K alpha (setting [3]) were 109% and 39%, respectively. The inhibition at 1 µM on Human PI3K gamma (setting [2]) came to 42%; at Human PI3K delta (setting [4]), 108%.
On the same counts, the results for `O=C(NO)c1sc(N2CCOCC2)nc1Cc1ccc(Cl)c(Cl)c1` [Compound 298, 4-(3,4-dichlorobenzyl)-N-hydroxy-2-(morpholin-4-yl)-1,3-thiazole-5-carboxamide] are 95%, 11%, 38% and 103%.
In the case of `OC(c1cc2ccccc2cc1F)c1cc(-c2ccncc2)sc1-c1nnc[nH]1` (stereo not drawn) [Compound 136], at Human PI3K beta (setting [1]), the inhibition at 1.1 µM is 110%. In addition, the inhibition at 1 µM was determined as 67% on Human PI3K gamma (setting [2]) and 109% at Human PI3K delta (setting [4]). Moreover, the “p110 alpha Percent Inhibition” value on Human PI3K alpha (setting [5]) was found to be 80%.
Regarding `OC(c1ccc2c(c1)OCO2)c1cc(-c2ccncc2)sc1-c1nnc[nH]1` (stereo not drawn) [Compound 256], the inhibition at 1.1 µM was found to be 87% on Human PI3K beta (setting [1]) and 25% on Human PI3K alpha (setting [3]). Also, the figures for the inhibition at 1 µM on Human PI3K gamma (setting [2]) and on Human PI3K delta (setting [4]) were 8% and 57%, respectively.
Consider `OC(c1cc2ccccc2cc1F)c1cc(-c2ccncc2)sc1-c1nnc[nH]1` (stereo not drawn) [Compound 284], for which the “p110 beta Percent Inhibition” value at Human PI3K beta (setting [5]) came out at 114%. Moreover, the “p110 gamma Percent Inhibition” value at Human PI3K gamma (setting [6]) was found to be 66%. For the same compound, the “p110 alpha Percent Inhibition” value at Human PI3K alpha (setting [5]) stood at 39%. Besides, at Human PI3K delta (setting [6]), the “p110 delta Percent Inhibition” value was 110%.
With `Cn1c(Cc2c(C(=O)O)sc(N3CCOCC3)c2C#N)cc2ccccc21` [Compound 330], the inhibition at 1.1 µM was determined as 109% on Human PI3K beta (setting [1]) and 85% on Human PI3K alpha (setting [3]). Moreover, the inhibition at 1 µM at Human PI3K gamma (setting [2]) was 61%; on Human PI3K delta (setting [4]), 106%.
For the compound `O=C(O)c1sc(N2CCOCC2)nc1Cc1cc2ccccc2cc1F` [Compound 314], the results for the inhibition at 1.1 µM on Human PI3K beta (setting [1]) and at Human PI3K alpha (setting [3]) were 109% and 42%, respectively. Moreover, the inhibition at 1 µM at Human PI3K gamma (setting [2]) came out at 42%; at Human PI3K delta (setting [4]), 104%.
On to `N#Cc1c(N2CCOCC2)sc(C(=O)O)c1Cc1cc2cc(F)ccc2[nH]1` [Compound 312], for which the results for the inhibition at 1.1 µM on Human PI3K beta (setting [1]) and at Human PI3K alpha (setting [3]) were 105% and 64%, respectively. The inhibition at 1 µM at Human PI3K gamma (setting [2]) worked out at 47%; on Human PI3K delta (setting [4]), 92%.
As for `COc1ccc2cc(Cc3c(C(=O)O)sc(N4CCOCC4)c3C#N)ccc2c1` [Compound 301], the inhibition at 1.1 µM was 107% at Human PI3K beta (setting [1]) and 55% on Human PI3K alpha (setting [3]). Also, the inhibition at 1 µM at Human PI3K gamma (setting [2]) came to 49%; on Human PI3K delta (setting [4]), 89%.
As for `OC(c1ccccc1-c1cccnc1)c1cc(-c2ccncc2)sc1-c1nnc[nH]1` (stereo not drawn) [Compound 276], the inhibition at 1.1 µM on Human PI3K beta (setting [1]) was found to be 15%; at Human PI3K alpha (setting [3]), 4%. Further, the inhibition at 1 µM at Human PI3K gamma (setting [2]) came to 6%; at Human PI3K delta (setting [4]), 12%.
On the same counts, the results for `OC(c1cc(-c2ccncc2)sc1-c1nnc[nH]1)c1c(F)cccc1Cl` (stereo not drawn) [Compound 275] are 47%, 17%, 14% and 44%.
For `O=C(O)c1sc(-c2ccncc2)cc1Cc1ccc2ccccc2c1` [Compound 210, 3-(2-naphthylmethyl)-5-pyridin-4-ylthiophene-2-carboxylic acid] the same measures were 110%, 52%, 68% and 92%.
For `CC(=O)Nc1cc(-c2cc(C(NCC3CNC3)c3ccc(Cl)cc3)c(-c3nnc[nH]3)s2)ccn1` (stereo not drawn) [Compound 129] the same measures were 106%, 83%, 32% and 109%.
For the compound `OC(c1ccccc1F)c1cc(-c2ccncc2)sc1-c1nnc[nH]1` (stereo not drawn) [Compound 155], the inhibition at 1.1 µM at Human PI3K beta (setting [1]) came out at 64%; on Human PI3K alpha (setting [3]) it was 29%. Also, the values for the inhibition at 1 µM on Human PI3K gamma (setting [2]) and at Human PI3K delta (setting [4]) were 28% and 53%, respectively.
For `CC(=O)Nc1cc(-c2cc(C(c3ccc(Cl)cc3)N3CCN(C)CC3)c(-c3nnc[nH]3)s2)ccn1` (stereo not drawn) [Compound 267] the same measures were 113%, 100%, 43% and 111%.
Turning to `Cc1ccc(C(O)c2cc(-c3ccncc3)sc2-c2nnc[nH]2)s1` (stereo not drawn) [Compound 271], the results for the inhibition at 1.1 µM on Human PI3K beta (setting [1]) and on Human PI3K alpha (setting [3]) were 82% and 35%, respectively. For the same compound, the inhibition at 1 µM turned out to be 8% at Human PI3K gamma (setting [2]) and 63% at Human PI3K delta (setting [4]).
Regarding `OC(c1cc(-c2ccncc2)sc1-c1nnc[nH]1)c1c(F)ccc2ccccc12` (stereo not drawn) [Compound 203], the “p110 beta Percent Inhibition” value at Human PI3K beta (setting [5]) stood at 88%. Besides, at Human PI3K gamma (setting [6]), the “p110 gamma Percent Inhibition” value amounted to 16%. Besides, the “p110 alpha Percent Inhibition” value at Human PI3K alpha (setting [5]) is listed as 10%. Besides, at Human PI3K delta (setting [6]), the “p110 delta Percent Inhibition” value stood at 67%.
For `OC(c1ccc2ccccc2c1)c1cc(-c2ccncc2)sc1-c1nnc[nH]1` (stereo not drawn) [Compound 208] the same measures were 108%, 47%, 42% and 107%.
Turning to `O=C(O)c1sc(N2CCOCC2)nc1Cc1ccc2ccc(F)cc2c1` [Compound 310], the inhibition at 1.1 µM came to 106% at Human PI3K beta (setting [1]) and 34% at Human PI3K alpha (setting [3]). Further, the results for the inhibition at 1 µM on Human PI3K gamma (setting [2]) and on Human PI3K delta (setting [4]) were 64% and 105%, respectively.
On the same counts, the results for `OC(c1cc(-c2ccncc2)sc1-c1nnc[nH]1)c1cccc2nccnc12` (stereo not drawn) [Compound 169] are 89%, 65%, 7% and 65%.
For `CC(=O)Nc1cc(-c2cc(C(c3ccc(Cl)cc3)N3CCN(C(C)=O)CC3)c(-c3nnc[nH]3)s2)ccn1` (stereo not drawn) [Compound 196] the same measures were 91%, 69%, 12% and 105%.
By IC50 is commonly meant the concentration that inhibits the measured activity by half. On to `O=C(O)c1sc(N2CCOCC2)nc1Cc1ccc(Cl)cc1` [Compound 91, 4-(4-chlorobenzyl)-2-morpholinothiazole-5-carboxylic acid], for which the inhibition at 1.1 µM at Human PI3K beta (at a 1.1 μM concentration, read-out: PI3β Percent Inhibition) was determined as 105%; at Human PI3K alpha (at a 1.1 μM concentration, read-out: PI3Kα Percent Inhibition), 27%. Further, the IC50 on Human PI3K beta (read-out: PI3 Kbeta IC50) is under 100 nM; on Human PI3K alpha (read-out: PI3Kalpha IC50), over 1000 nM. Further, the inhibition at 1 µM at Human PI3K gamma (at a 1.0 μM concentration, read-out: PI3Kγ Percent Inhibition) was 15.4%; at Human PI3K delta (at a 1.0 μM concentration, read-out: PI3Kδ Percent Inhibition) it was 84.8%.
Consider `CC(=O)Nc1cc(-c2cc(C(c3ccc(Cl)cc3)N(C)C3CCNCC3)c(-c3nnc[nH]3)s2)ccn1` (stereo not drawn) [Compound 222], for which the results for the inhibition at 1.1 µM at Human PI3K beta (setting [1]) and on Human PI3K alpha (setting [3]) were 98% and 68%, respectively. For the same compound, the inhibition at 1 µM on Human PI3K gamma (setting [2]) was 9%; on Human PI3K delta (setting [4]) it was 102%.
In the case of `CC(c1ccc2ccccc2c1)c1c(C(=O)O)sc(N2CCOCC2)c1C#N` (stereo not drawn) [Compound 333], the values for the inhibition at 1.1 µM at Human PI3K beta (setting [1]) and on Human PI3K alpha (setting [3]) were 95% and 63%, respectively. Besides, the inhibition at 1 µM turned out to be 55% on Human PI3K gamma (setting [2]) and 74% at Human PI3K delta (setting [4]).
Consider `CC(=O)Nc1cc(-c2cc(C(c3ccc(Cl)cc3)N3CC(CCN)C3)c(-c3nnc[nH]3)s2)ccn1` (stereo not drawn) [Compound 270], for which the inhibition at 1.1 µM at Human PI3K beta (setting [1]) came out at 114%; at Human PI3K alpha (setting [3]), 81%. Besides, the inhibition at 1 µM on Human PI3K gamma (setting [2]) came to 24%; at Human PI3K delta (setting [4]), 111%.

These data come from patent US8796268B2, “Heteroaryls and uses thereof” (Millennium Pharmaceuticals, Inc., priority 2010, dated 2014).
